Data: patent US20240059677A1, “SUBSTITUTED PYRIMIDINE DERIVATIVES AS NICOTINIC ACETYLCHOLINESTERASE RECEPTOR ALPHA 6 MODULATOR” (priority 2020, published 2024)
Where two headings read alike, the source gives them in different places. Marks after values point to notes of the source that are not given here.

How the values were obtained:
[1] = test system: tremulous jaw movements induced by tacrine in male C57BL/6J mice; experiment: tacrine-induced tremulous jaw movements, mice; format: in vivo; conditions: mouse; 10 mg/kg p.o.; tacrine 5 mg/kg i.p.; n=10/group; tremulous jaw movements relative to vehicle (100%)
Procedure: (§1) Resting tremor is one of the classic symptoms of Parkinson's disease. These characteristic tremors can be modelled pharmacologically in preclinical models using cholinomimetics such as the acetylcholine esterase inhibitor, tacrine (5 mg/kg, i.p.) (Salamone et al, Prog Neurobiol 56: 591-611 1998) to induce tremulous jaw movement behaviours. These tremulous jaw movements are thought to arise from an imbalance between cholinergic and dopaminergic neurotransmission and are thought to mimic the imbalances in neurotransmission resulting from the dopamine loss seen in Parkinson's disease (Aosaki et al, Geriatr Gerontol Int 10: s148-s157 2010). These tremors can be reversed by agents increasing the dopamine tone, such as dopamine agonists (Salamone et al, Behav Brain Res 156: 173-179 2005).
The objective of these studies was to evaluate the effects of oral administration of Example Compounds on tremulous jaw movements induced by tacrine in male C57BL/6J mice or Sprague-Dawley rats. Animals were administered vehicle (0.5% methylcellulose, p.o.) or Example Compound (across a range of doses; 10 mg/kg, p.o. data shown) 15 to 60 minutes prior to behavioural testing (n=10/group). Tacrine (5 mg/kg, i.p.) was administered to all animals immediately before behavioural assessment commenced. For each animal the latency to the first tremulous jaw movement and the total duration of the tremulous jaw movements post tacrine administration were recorded.
illustrative data shown is percentage attenuation of tacrine-induced tremulous jaw movements relative to vehicle (100%). Each compound shown was tested at 10 mg/kg p.o.
(§2) Statistical significance was assessed using an unpaired student's t-test vs vehicle * p<0.05, ***p<0.001.

[2] = target: T1, human nAChRα6-α3 chimera, in addition to β2 and β3^V273S subunits (Homo sapiens, UniProt P32297+Q15825); experiment: fluorescence-based calcium assay: inhibition of nicotine stimulated nAChRα6 activity (FLIPR); conditions: HEK cell line stably expressing the receptor, 10 min pre-incubation, nicotine EC80, 10-point curve, duplicate wells
T1 construct: expressed in transfected cells
T1 sequence (Q05901 25-458 V273S): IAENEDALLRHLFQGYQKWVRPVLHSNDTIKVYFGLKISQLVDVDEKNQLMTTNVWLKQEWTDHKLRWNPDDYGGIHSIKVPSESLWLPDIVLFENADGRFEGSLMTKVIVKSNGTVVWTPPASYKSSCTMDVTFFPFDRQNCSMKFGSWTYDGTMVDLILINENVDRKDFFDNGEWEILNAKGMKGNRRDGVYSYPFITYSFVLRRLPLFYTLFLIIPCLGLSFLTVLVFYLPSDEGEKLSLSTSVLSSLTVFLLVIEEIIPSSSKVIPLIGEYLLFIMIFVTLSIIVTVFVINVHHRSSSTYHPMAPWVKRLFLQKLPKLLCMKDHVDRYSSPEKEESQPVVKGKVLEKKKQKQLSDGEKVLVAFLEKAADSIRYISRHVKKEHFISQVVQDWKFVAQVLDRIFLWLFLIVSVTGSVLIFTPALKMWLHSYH
T1 sequence (P17787 26-502, stated change not applied, further chain): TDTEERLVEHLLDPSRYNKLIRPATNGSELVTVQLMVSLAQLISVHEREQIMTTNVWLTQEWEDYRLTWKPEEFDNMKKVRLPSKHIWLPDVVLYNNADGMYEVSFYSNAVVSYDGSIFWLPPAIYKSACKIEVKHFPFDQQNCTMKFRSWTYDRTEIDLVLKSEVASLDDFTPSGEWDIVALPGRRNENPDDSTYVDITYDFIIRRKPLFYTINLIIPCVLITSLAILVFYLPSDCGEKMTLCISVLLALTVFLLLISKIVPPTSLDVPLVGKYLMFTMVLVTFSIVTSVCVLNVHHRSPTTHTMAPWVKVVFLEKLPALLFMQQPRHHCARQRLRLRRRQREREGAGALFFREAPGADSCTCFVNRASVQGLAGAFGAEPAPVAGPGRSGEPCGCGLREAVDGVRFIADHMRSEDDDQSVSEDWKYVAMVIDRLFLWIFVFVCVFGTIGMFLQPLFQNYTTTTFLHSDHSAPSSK
T1 sequence (Q15825+P32297 fused with the stated changes): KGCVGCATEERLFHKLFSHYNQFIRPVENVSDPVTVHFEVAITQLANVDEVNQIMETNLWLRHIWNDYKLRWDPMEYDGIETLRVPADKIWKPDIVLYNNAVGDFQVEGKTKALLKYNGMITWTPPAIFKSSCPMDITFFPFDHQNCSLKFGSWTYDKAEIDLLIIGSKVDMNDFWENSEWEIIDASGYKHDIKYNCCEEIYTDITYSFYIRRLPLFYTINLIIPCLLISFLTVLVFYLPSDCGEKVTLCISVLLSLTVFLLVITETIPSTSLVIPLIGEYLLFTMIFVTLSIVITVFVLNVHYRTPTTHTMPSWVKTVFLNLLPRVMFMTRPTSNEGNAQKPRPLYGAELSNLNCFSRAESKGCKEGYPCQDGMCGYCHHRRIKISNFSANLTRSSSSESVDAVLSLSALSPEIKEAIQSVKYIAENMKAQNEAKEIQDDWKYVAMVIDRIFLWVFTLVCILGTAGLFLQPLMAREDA
How it was run: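 HEK cells stably expressing the human α6-α3 chimera with β2 and β3^V273S were loaded with calcium dye at 30° C. Compounds were pre-incubated for 10 min before nicotine at EC80, and the fluorescence change was read on a FLIPR. Ten-point half-log concentration-response, duplicate wells.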

[3] = test system: tremulous jaw movements induced by tacrine in Sprague-Dawley rats; experiment: tacrine-induced tremulous jaw movements, rats; format: in vivo; conditions: rat; 10 mg/kg p.o.; tacrine 5 mg/kg i.p.; n=10/group; tremulous jaw movements relative to vehicle (100%)
Procedure: as §1
The objective of these studies was to evaluate the effects of oral administration of Example Compounds on tremulous jaw movements induced by tacrine in male C57BL/6J mice or Sprague-Dawley rats. […] For each animal the latency to the first tremulous jaw movement and the total duration of the tremulous jaw movements post tacrine administration were recorded. […]
as §2

Compound | % Decrease from vehicle or percentage relative to vehicle (100%), (mean ± SEM) [1] | IC50 ([2]; read-out: IC50) | % Decrease from vehicle or percentage relative to vehicle (100%), (mean ± SEM) [3] | IC50 ([2]; IC50 (μM))
Cc1nc(NC[C@@H]2CCCN2)ncc1-c1ccc(F)cc1F [Example 94b, (S)-5-(2,4-difluorophenyl)-4-methyl-N-(pyrrolidin-2-ylmethyl)pyrimidin-2-amine] | 79.9 ± 7.2% | 0.005 µM |  | 
CCN1CCC[C@H](Nc2ncc(-c3ccc(F)cc3F)c(C)n2)C1.O=C(O)/C=C/C(=O)O (single isomer, unassigned) [Example 78b] | 23.8 ± 7.7*** % | 0.06 µM |  | 
CC(C)N1CCC(Nc2ncc(-c3ccc(F)cc3F)c(C#N)n2)CC1 [Example 65, 5-(2,4-difluorophenyl)-2-((1-isopropylpiperidin-4-yl)amino)pyrimidine-4-carbonitrile] |  | 0.084 µM | 30.0 ± 12.8* % | 
Cc1nc(NC[C@H]2CCCN2C)ncc1-c1ccc(F)cc1F [Example 24b, (R)-5-(2,4-difluorophenyl)-4-methyl-N-((1-methylpyrrolidin-2-yl)methyl) pyrimidin-2-amine] | 23.9 ± 3.8*** % | 0.005 µM |  | 
Cc1nc(NCC2CCC(C)N2C)ncc1-c1ccc(C(F)(F)F)cc1F (single isomer, unassigned) [Example 138b, N-(((2*S,5*S)-1,5-dimethylpyrrolidin-2-yl)methyl)-5-(2-fluoro-4-(trifluoromethyl)phenyl)-4-methyl-pyrimidin-2-amine] |  | 0.085 µM |  | 
CCN1CCCCC1CNc1ncc(-c2ccc(F)cc2F)c(C)n1 (stereo not shown) [Example 10, 5-(2,4-difluorophenyl)-N-((1-ethylpiperidin-2-yl)methyl)-4-methyl-pyrimidin-2-amine] |  |  |  | 0.201 µM
